{"source": "patent US20250339569A1", "about": "“CARBONIC ANHYDRASE IX LIGANDS” (priority 2021, published 2025)", "key": {"[1]": {"assay": "Dose range finding study by intravenous route with toxicokinetics", "assay_type": "in vivo, beagle dogs", "conditions": "for Dose-normalized AUClast: AUClast divided by dose in μg/kg; for clearance / half-life / Vd / AUC(0-t) / level at […]: male, beagle, iv, mean n = 2; for clearance / half-life / Vd: dog, plasma; for Vd: read-out: Vss; for AUC(0-t) / level at […]: dog plasma; for level at […]: read-out: C15 min", "experimental": "The following parameters and endpoints were evaluated: mortality, clinical observations, body weights, food consumption, local reactions, clinical pathology parameters (hematology, coagulation, and clinical chemistry), organ weights, and macroscopic examinations. Both animals were sampled for toxicokinetics (TK) on each dosing occasion (i.e., on day 1, day 5, day 9 and day 13) at: pre-dose, 15 min, 30 min, 1 h, 6 h and 24 h. Blood samples were collected in K2EDTA tubes. Plasma was prepared by centrifugation (2500 g for 10 minutes, +4° C.) within 1 hour after collection, and then frozen within 1 hour after centrifugation and stored at −80° C. […] Chromatographic separation was achieved using a Waters Acquity UPLC system with a Waters Acquity HSS T3 C18 2.1×50 mm, 1.8 μm column. Chromatography was conducted at 50° C. at a flow rate of 0.7 mL/min using a mobile phase consisting of A: acetonitrile, and B: 1% formic acid in water, according to the following linear gradient: 0 to 0.1 min: 90% B; 0.1 to 4.1 min: from 90% B to 74% B; 4.1 to 4.2 min: from 74% B to 5% B; 4.2 to 4.6 min: 5% B; 4.6 to 4.7 min: from 5% B to 90% B; 4.7-5.1 min; 90% B. Detection was performed using a Sciex API6600 TOF mass spectrometer. Toxicokinetic parameters were estimated from concentration-time data using Phoenix pharmacokinetic software (version 6.4, Certara L. P.). A non-compartmental approach consistent with the bolus intravenous injection was used for parameter estimation."}, "[2]": {"assay": "Pharmacokinetic characterization in healthy mice", "assay_type": "in vivo, CD-1 mice", "conditions": "male, CD-1, plasma, iv, mouse; for clearance: read-out: Clearance (CL); for half-life: read-out: terminal elimination half-life (converted); for Vd: read-out: volume of distribution (Vd)", "experimental": "The pharmacokinetics of DPI-4452 after a single intravenous (i.v.) dose were investigated in healthy mice. […] Plasma and urine samples collected after dosing were analyzed using a LC-HRMS (liquid chromatography coupled with high-resolution mass spectrometry) assay method. Concentration values were used for pharmacokinetic calculations.\nMale CD-1 mice (3 animals per time point and per dose level; overall, 28.2-37.6 g body weight) were administered intravenously in the tail vein in a 2 mL/kg dosing volume. Blood samples were collected in K2EDTA tubes at 5 min, 15 min, 30 min, 1 h, 2 h, 4 h, 8 h, and urine was collected over 8 hours post dose. The blood samples were kept on wet ice until plasma separation by centrifugation at room temperature; 10 min; 2500 G, which was performed within 60 min after sampling. The plasma samples were transferred into plastic tubes, frozen and stored at −80° C. until analysis.\nPlasma and urine samples were analyzed by LC-HRMS after solid phase extraction, using a stable isotope-labeled internal standard (^13C6, ^15N-DPI-4452). Chromatographic separation was run on a Waters Acquity HSS T3 C18 2.1×50 mm, 1.8 μm column. Detection was achieved on a Sciex API6600 TOF mass spectrometer. The lower limit of quantification was 1.00 ng/mL in plasma and urine.\nThe non-compartmental (NCA) pharmacokinetic analysis of plasma concentration data was conducted using Phoenix 64 WinNonlin (Build 8.3.3.33) software. Nominal doses were used for all animals. The terminal phase half-life (T1/2) was calculated by least-squares regression analysis of the terminal linear part of the log concentration-time curve. The area under the plasma concentration-time curve (AUC) was determined with the linear trapezoidal rule for increasing values and log trapezoidal rule for decreasing values up to the last measurable concentration."}, "[3]": {"assay": "Allometry and prediction of human exposure and PK parameters", "conditions": "allometry from mouse and dog PK", "experimental": "From the variety of CL, Vd and T1/2 determined in the animal studies, the highest and lowest values for each species were retained, and allometry was conducted on all the combinations to obtain a range for each predicted human PK parameter.\nThe missing input parameters were dealt with as follows. Regarding blood:plasma concentration ratio, the frequent default values of 1.0 and 0.8 were considered and found to make no difference to the outputs, so it was left at 1.0. Plasma protein binding: a free fraction fup of 1 was considered in order to estimate the highest C5 min values."}}, "note": "Read-outs that look alike come from different tables or passages of the source."}
{"smiles": "CC(C)C[C@@H]1NC(=O)[C@H](Cc2cccc(NC(=O)CCCS(N)(=O)=O)c2)NC(=O)[C@H](CC(=O)O)NC(=O)[C@H]2CCCN2C(=O)[C@H](CCC(=O)O)NC(=O)[C@@H](NC(=O)[C@H](CCC(N)=O)NC(=O)CN2CCN(C(=O)CN3CCN(CC(=O)O)CCN(CC(=O)O)CCN(CC(=O)O)CC3)CC2)CSCc2cccc(c2)CSC[C@@H](C(N)=O)NC(=O)[C@H](CO)NC(=O)[C@H](Cc2c[nH]c3ccccc23)NC(=O)[C@H]([C@@H](C)O)NC1=O", "note": "[DPI-4452, DOTA-PPAc-Gln-[Cys(3MeBn)-Glu-pro-Asp-Af3(Cpsu)-Leu-Thr-Trp-Ser-Cys]-NH2]", "values": [{"measurement": "Dose-normalized AUClast", "setting": "[1]; Day 1, […] i.v.", "result": 1.36}, {"measurement": "Dose-normalized AUClast", "setting": "[1]; Day 5, 0.08 mg/kg i.v.", "result": 1.46}, {"measurement": "Dose-normalized AUClast", "setting": "[1]; Day 9, 0.4 mg/kg i.v.", "result": 2.31}, {"measurement": "Dose-normalized AUClast", "setting": "[1]; Day 13, 0.8 mg/kg i.v.", "result": 4.42}, {"measurement": "dose proportionality of exposure", "setting": "[1]; male beagle dogs, 25 to 800 μg/kg i.v.", "result": "exposure increased more than dose-proportionally"}, {"measurement": "tolerability", "setting": "[1]; male beagle dogs, i.v. bolus, ascending 25, 80, 400, 800 μg/kg/day", "result": "well tolerated systemically and locally"}, {"measurement": "clearance", "setting": "[1]; Day 1, 0.025 mg/kg i.v.", "result": 11.7, "unit": "mL/min/kg"}, {"measurement": "half-life", "setting": "[1]; Day 1, 0.025 mg/kg i.v.", "result": 15, "unit": "min"}, {"measurement": "Vd", "setting": "[1]; Day 1, 0.025 mg/kg i.v.", "result": 0.22, "unit": "L/kg"}, {"measurement": "clearance", "setting": "[1]; Day 9, 0.4 mg/kg i.v.", "result": 6.83, "unit": "mL/min/kg"}, {"measurement": "half-life", "setting": "[1]; Day 9, 0.4 mg/kg i.v.", "result": 29.4, "unit": "min"}, {"measurement": "Vd", "setting": "[1]; Day 9, 0.4 mg/kg i.v.", "result": 0.24, "unit": "L/kg"}, {"measurement": "clearance", "setting": "[1]; Day 13, 0.8 mg/kg i.v.", "result": 3.52, "unit": "mL/min/kg"}, {"measurement": "half-life", "setting": "[1]; Day 13, 0.8 mg/kg i.v.", "result": 52.8, "unit": "min"}, {"measurement": "Vd", "setting": "[1]; Day 13, 0.8 mg/kg i.v.", "result": 0.32, "unit": "L/kg"}, {"measurement": "AUC(0-t)", "setting": "[1]; Day 1, 0.025 mg/kg i.v.", "result": 34, "unit": "ng·h/mL"}, {"measurement": "level at […]", "setting": "[1]; Day 1, 0.025 mg/kg i.v.", "result": 46.8, "unit": "ng/mL"}, {"measurement": "AUC(0-t)", "setting": "[1]; Day 5, 0.08 mg/kg i.v.", "result": 117, "unit": "ng·h/mL"}, {"measurement": "level at […]", "setting": "[1]; Day 5, 0.08 mg/kg i.v.", "result": 156, "unit": "ng/mL"}, {"measurement": "AUC(0-t)", "setting": "[1]; Day 9, 0.4 mg/kg i.v.", "result": 926, "unit": "ng·h/mL"}, {"measurement": "level at […]", "setting": "[1]; Day 9, 0.4 mg/kg i.v.", "result": 880, "unit": "ng/mL"}, {"measurement": "AUC(0-t)", "setting": "[1]; Day 13, 0.8 mg/kg i.v.", "result": 3530, "unit": "ng·h/mL"}, {"measurement": "level at […]", "setting": "[1]; Day 13, 0.8 mg/kg i.v.", "result": 2000, "unit": "ng/mL"}, {"measurement": "AUC(0-inf)", "setting": "[2]; i.v. 0.7 mg/kg", "result": 424, "unit": "ng·h/mL"}, {"measurement": "clearance", "setting": "[2]; i.v. 0.7 mg/kg", "result": 27.5, "unit": "mL/min/kg"}, {"measurement": "half-life", "setting": "[2]; i.v. 0.7 mg/kg", "result": 16.8, "unit": "min"}, {"measurement": "Vd", "setting": "[2]; i.v. 0.7 mg/kg", "result": 0.408, "unit": "L/kg"}, {"measurement": "AUC(0-inf)", "setting": "[2]; i.v. 5.5 mg/kg", "result": 2820, "unit": "ng·h/mL"}, {"measurement": "clearance", "setting": "[2]; i.v. 5.5 mg/kg", "result": 32.5, "unit": "mL/min/kg"}, {"measurement": "half-life", "setting": "[2]; i.v. 5.5 mg/kg", "result": 27.9, "unit": "min"}, {"measurement": "Vd", "setting": "[2]; i.v. 5.5 mg/kg", "result": 0.455, "unit": "L/kg"}, {"measurement": "predicted human clearance (CL)", "setting": "[3]", "result": "3.57 to 13.0", "unit": "mL/min/kg"}, {"measurement": "predicted human terminal half-life (T1/2)", "setting": "[3]", "result": "10.2 to 88.2", "unit": "min"}, {"measurement": "predicted human volume of distribution (Vd)", "setting": "[3]", "result": "0.189 to 0.455", "unit": "L/kg"}]}
